Test results: publication PMC11706420, “Establishing a physiologically based pharmacokinetic framework for aldehyde oxidase and dual aldehyde oxidase‐CYP substrates” (CPT: Pharmacometrics & Systems Pharmacology, 2024)
Like-named read-outs stand apart in the source and are kept apart here.

Tests used:
[1] = parameters: method as in earlier work; conditions: menadione 100 µM; ref 45 (suppl.); cited from earlier work
[2] = Cytosolic binding (fucyt), dog liver cytosol; conditions: 1 mg/mL, n=3, mean (CV%)
Protocol: In vitro data were generated to inform the PBPK models of the selected drugs (Supplement 1 in Appendix S1; Table S1). Subcellular fractions of human and dog liver were sourced from XenoTech (Kansas City, KS, USA). In vitro CLint,u was measured with substrate depletion and binding assays for all compounds (1 μM) in human liver microsomes (HLM; 0.25–0.5 mg/mL) and HLC (1 mg/mL). HLC pool was prepared from livers perfused with Custodiol HTK (histidine tryptophan ketoglutarate) solution, marketed as having preserved “high AO/XO activity.”[15] Dog liver cytosols (DLC; 1 mg/mL) were used to investigate cytosolic binding in the absence of AO. Routine in vitro assays were used to quantify unbound fraction in plasma (fup), blood‐to‐plasma ratio (B/P), and apparent permeability (Papp) through transwell transport assays utilizing canine Mdr1 knockout and empty vector‐transfected MDCKI cells.
𝐶𝐿 = 𝑘 × 𝑣𝑜𝑙𝑢𝑚𝑒 𝑜𝑓 𝑖𝑛𝑐𝑢𝑏𝑎𝑡𝑖𝑜𝑛 (Eq S9)
Cytosolic binding (fucyt):
The fraction unbound in human liver cytosols (fucyt) of compounds was determined by equilibrium
dialysis using the RED device (Thermo Fisher, Waltham MA, USA) with a molecular weight cut-off of
8 kDa. Dog or human liver cytosols at 1 mg/mL with 1 µM of compounds (300 µL, n=3 per compound)
were added to the donor compartment in 100 mM potassium phosphate buffer with final DMSO
liver cytosols to inactivate AO, whereas dog was used as a natural AO knock-out model. 500 µL of 100
mM potassium phosphate buffer (pH 7.35) was added to the receiver chamber for each replicate.
RED device was then sealed with an adhesive foil and incubated on an orbital shaker at 450 rpm (VWR
Symphony) at 37°C with 5 % CO2. After reaching equilibrium for 4 hours, aliquots from both the
receiver (30µL) and donor (30µL) sides of the membrane were matrix matched, and then quenched with
180 µL of cold ACN with 100 nM propranolol (internal standard). The samples were placed in a
Beckman Coulter Allegra x 12R Centrifuge (Brea, CA) for 15 minutes at 3700 rpm. After centrifugation,
the supernatant of each sample was diluted 1:2 and analyzed by LC -MS/ MS. Matrix stability and
recovery were assessed in triplicates and followed identical sample preparation.
Microsomal binding (fumic):
(§1) The fraction unbound in human liver microsomes (fumic) of compounds was determined by equilibrium
(§2) dialysis using the high-throughput dialysis method 2 using membranes from HTDialysis, LLC (Gales
(§3) Ferry, CT) having 12 to 14 kDa molecular mass cutoff. Deactivated HLM (by leaving the HLM
(§4) incubation media on the bench overnight at ambient temperature) at 0.25 mg/mL with 2 µM of
(§5) compounds (a final concentration of DMSO as 1%) was added to the donor compartment in 50 mM
(§6) phosphate buffer containing 1 M MgCl2. (150 µL, n=4 per compound). 150 µL of Dulbecco’s PBS
(§7) buffer (pH 7.4) was added to the receiver chamber for each replicate. After reaching equilibrium for 6
(§8) h on a plate shaker (200 rpm) at 37°C in a humidified CO2 incubator (5% CO2), aliquots from both the
(§9) receiver (45 µL) and donor (15 µL) sides of the membrane were matrix matched and analyzed by LC-
(§10) MS/MS. Matrix stability (n=3) and % of recovery (n=4) were assessed.
(§11) Data analysis for binding in microsomal and cytosolic incubations:
(§12) Fraction unbound in microsomal (fumic) and cytosolic (fucyt) incubations were calculated via Eq. S10-11
(§13) based on the ratio of the peak areas of analyte and internal standard.
(§14) 𝑃𝑒𝑎𝑘 𝐴𝑟𝑒𝑎 𝑅𝑎𝑡𝑖𝑜 = (𝑃𝑒𝑎𝑘 𝐴𝑟𝑒𝑎 𝑜𝑓 𝐴𝑛𝑎𝑙𝑦𝑡𝑒)/(𝑃𝑒𝑎𝑘 𝐴𝑟𝑒𝑎 𝑜𝑓 𝐼𝑛𝑡𝑒𝑟𝑛𝑎𝑙 𝑆 tan 𝑑 𝑎𝑟𝑑) (Eq. S10)
(§15) 𝑓𝑢𝑚𝑖𝑐 𝑜𝑟 𝑓𝑢𝑐𝑦𝑡 = (𝑃𝑒𝑎𝑘 𝐴𝑟𝑒𝑎 𝑅𝑎𝑡𝑖𝑜 𝑖𝑛 𝑟𝑒𝑐𝑒𝑖𝑣𝑒𝑟 𝑐𝑜𝑚𝑝𝑎𝑟𝑡𝑚𝑒𝑛𝑡)/
(§16) concentration (0.5 mg/mL) using Hallifax and Houston algorithm (Hallifax and Houston, 2006). Matrix
(§17) stability and recovery were assessed using Eq. S12 and Eq. S13.
(§18) %𝑠𝑡𝑎𝑏𝑖𝑙𝑖𝑡𝑦 = (𝐴𝑣𝑒𝑟𝑎𝑔𝑒 𝑝𝑒𝑎𝑘 𝑎𝑟𝑒𝑎 𝑖𝑛 𝑚𝑎𝑡𝑟𝑖𝑥 𝑎𝑡 𝑡ℎ𝑒 𝑒𝑛𝑑 𝑜𝑓 𝑖𝑛𝑐𝑢𝑏𝑎𝑡𝑖𝑜𝑛)/
(§19) (𝐴𝑣𝑒𝑟𝑎𝑔𝑒 𝑝𝑒𝑎𝑘 𝑎𝑟𝑒𝑎 𝑎𝑡 𝑇 = 0) × 100 (Eq. S12)
%𝑟𝑒𝑐𝑜𝑣𝑒𝑟𝑦 = (𝐴 + 𝐵)/𝐶 × 100 (Eq. S13)
(§20) where A is the average peak area ratio of all matrix samples, B is the average peak area ratio

[3] = In vitro permeability (Papp), transwell transport; conditions: dog, MDCK
[4] = Blood-to-plasma ratio (B/P); assay type: in vitro ADME, human
Excerpt: Determination of blood to plasma ratio (B/P):
Whole human blood was collected on the day of the experiment from healthy volunteers. The collection protocol was approved by an independent ethical committee and all donors signed the consent forms. All samples were registered in the Janssen Biobank.
Prewarmed blood aliquots were mixed with the compounds (final concentrations shown in Suppl. Table 5) with a final organic DMSO solvent concentration of ≤0.1% (v/v). After gentle mixing to avoid haemolysis, blood aliquots were immediately collected for protein precipitation (1:1:8 ratios of blood sample:DMSO:ACN) and centrifugation (10 minutes, 3800 g) and the supernatant was used as a 0-minute reference blood sample. At the same time, blood aliquots were taken and centrifuged (10 minutes, 1200 g) to obtain the plasma portion. Plasma aliquots were then immediately collected for protein precipitation (1:1:8 ratios of plasma sample:DMSO:ACN) and centrifugation (10 minutes, 3800 g) and the supernatant was used as a 0-minute reference plasma sample. The remainder of the blood fraction was incubated (30 min at 37 °C). Following incubation, 30 -minute blood and plasma samples were taken and prepared as described for the reference 0-minute samples.
Mean compound concentration values (n=3 replicates) were calculated for both the blood and plasma samples. A blood-to-plasma concentration ratio was then determined using Eq. S4. […]

[5] = cited from earlier work
[6] = Cytosolic binding (fucyt), human liver cytosol with AO inhibitor; conditions: 1 mg/mL; n=3, mean (CV%)
[7] = Microsomal binding (fumic); conditions: for fumic (PBPK input): at incubation protein concentration (0.25 or 0.5 mg/mL)
Protocol: Microsomal binding (fumic):
as §1, §2, §3, §4, §5, §6, §7, §8, §9, §10, §11, §12, §13, §14, §15, §16, §17, §18, §19
%𝑟𝑒𝑐𝑜𝑣𝑒𝑟𝑦 = (𝐴 + 𝐵)/𝐶 × 100 (Eq. S13)
as §20
of all buffer samples multiplied with the buffer dilution factor and C is the average peak area ratio of

CYP3A4 = conditions: cited from earlier work
[8] = cited from earlier work; for logP: octanol-water, 12 (per cell)
[9] = cited from earlier work; for fmAO: ref suppl. 8-13; for fmCYP3A4: ref suppl. 8-12
[10] = Microsomal clearance incubations (substrate depletion); conditions: both, human
Protocol: Subcellular fractions of human and dog liver were sourced from XenoTech (Kansas City, KS, USA). In vitro CLint,u was measured with substrate depletion and binding assays for all compounds (1 μM) in human liver microsomes (HLM; 0.25–0.5 mg/mL) and HLC (1 mg/mL).
Microsomal clearance incubations (CLint):
Human liver microsomes were stored at −80°C and rapidly thawed just before use at 37°C.
All compounds were mixed with HLM and 50 mM
phosphate buffer. 450 µL of the mixture was added to 1.2mL cluster tubes in a 96-well block in
duplicate and warmed in a water bath (Thermo Scientific Precision™,Waltham MA, USA ) at 37°C for
5 min. Reactions were initiated by the addition of 50 µL from 10 mM of NADPH stock in 50 mM
phosphate buffer (final NADPH concentration, 1 mM). The final incubation contained 1 µM test
compound in 500 µL total volume with 0.02% DMSO. At each time point (5, 10, 20, 30, and 60 min),
60 µL of incubation mixture was added to 120 uL of quench solutions (MeOH:ACN, 1:1, v:v)
containing internal standard (0.5 µM carbutamide). The mixture was centrifuged at 3000 rpm for 20
min (Eppendorf 5810R, Hamburg, Germany). Supernatant was injected to HPLC-MS/MS with for data
Data analysis for substrate depletion assays:
Data from the microsomal and cytosolic incubations were analyzed using GraFit 7 (Erithacus Software,
Horley, UK) to determine the elimination rate constant (k), which was used in CLint calculation (Eq.
S9). A nonlinear single exponential fit was used for all compounds.
𝐶𝐿 = 𝑘 × 𝑣𝑜𝑙𝑢𝑚𝑒 𝑜𝑓 𝑖𝑛𝑐𝑢𝑏𝑎𝑡𝑖𝑜𝑛 (Eq S9)

[11] = Plasma protein binding (fup), rapid equilibrium dialysis; assay type: in vitro ADME, human
Protocol: (differing in 2 donors) were used for activity and microsomal binding assays, respectively.
The human biological samples were sourced ethically, and their research use was in accord with the terms of the informed consents under an IRB/EC approved protocol.
Determination of plasma protein binding (fup):
Human plasma (male, K2EDTA) was obtained from BioIVT (Baltimore, MD, USA). A pool of n=20 donors was prepared in-house (batch: 16062022). The plasma protein binding of compounds in human was determined by equilibrium dialysis using the rapid equilibrium dialysis (RED) device (Thermo […]
Frozen blank human plasma […]
solution to a final concentration of 1 µM (0.5 % DMSO). 300 µ L of the fortified plasma samples were subjected to dialysis against 500 µL PBS buffer at pH 7.4, for 6 h at 37 °C in triplicate. After dialysis, 200 µl aliquots of the buffer and the plasma compartments were transferred into micronic tubes. To minimize the potential for non -specific binding to the micronic tubes the buffer sam ples were collected on to 50µl of 10 % bovine serum albumin (BSA). For the assessment of test compound stability in plasma, 300 µl aliquots of the spiked plasma solutions were transferred into micronic tubes and incubated in an air heated incubator at 37°C without shaking for 4 and 20 hours. The remaining spiked protein solutions were frozen and used to measure the initial start concentration ( C0) to calculate the recovery. Sample analysis was achieved by LC -MS/MS and absolute quantification of the drug lev els in the buffer and plasma compartments was achieved via a matrix matched calibration curve (in the presence of an internal standard tolbutamide). All buffer and plasma sample sets were matrix matched […]
for analysis. The samples were centrifuged (15 minutes, 3400 g) and supernatants were transferred to a fresh plate for analysis. The unbound concentration (Cu), and the total concentration (CED) were determined by measurement of the concentration of the test compound in the buffer and plasma compartments of the dialysis cells, respectively. The fraction unbound was calculated using Eq. S1.
fuplasma = Cu/CED (Eq. S1)
The percentage recovery was calculated as the ratio of the sum of the amount in the buffer (Au) and plasma (AED) compartments to the amount at time zero (A0) (Eq. S2). The percentage stability was calculated as the ratio of the concentration of the test compound at the end of the incubation (C t) time […]
% recovery = (( Au + AED ) / A0 ) × 100 (Eq. S2)

[12] = cited from earlier work; remark: listed apart in the source
[13] = iv: zaleplon 5 (F), ziprasidone 5, zoniporide 80 mg, observed, ref suppl. 22,23,13
[14] = observed, ref Table S2/S3 studies
[15] = oral: capmatinib 200, idelalisib 150, lenvatinib 10, zaleplon 5 (F), ziprasidone 20 mg, observed mean or geomean (CV%), ref suppl. 8,14,16,19,22,23
[16] = oral: capmatinib 200, idelalisib 150, lenvatinib 10, zaleplon 5 (F), ziprasidone 20 mg, observed, ref suppl. 8,14,16,19,22,23
[17] = corrected with Hallifax&Houston algorithm
[18] = DDI study with rifampicin (capmatinib 400, idelalisib 150, lenvatinib 24 mg) or carbamazepine (ziprasidone 20 mg), observed, ref suppl. 15,18,21,25
[19] = with itraconazole (capmatinib 200 mg) or ketoconazole (idelalisib 400, lenvatinib 5, ziprasidone 40 mg), observed, ref suppl. 15,10,17,20,24
[20] = with rifampicin (capmatinib 400, idelalisib 150, lenvatinib 24 mg) or carbamazepine (ziprasidone 20 mg), observed, ref suppl. 15,18,21,25
[21] = observed (mass balance), min-max where uncertain
[22] = iv: zaleplon 5 mg (M), observed, ref suppl. 22
[23] = oral: capmatinib 600, zaleplon 5 (M) mg, observed, ref suppl. 8,22

Q: With `CC1=CC(=O)c2ccccc2C1=O` [menadione] as the molecule, how does the “inhibition of ziprasidone reduction” value [1] read?
A: 90%

Q: Which results are given for `O=C1Cc2cc(CCN3CCN(c4nsc5ccccc45)CC3)c(Cl)cc2N1` [Ziprasidone]?
A: fucyt, Dog Liver Cytosol with 50 uM Hydralazine [2]: 0.288 (3.81); Papp A→B at 120 min, 5 µM [3]: 3.15 ×10⁻⁶ cm/s; Papp B→A at 120 min, 5 µM [3]: 0.843 ×10⁻⁶ cm/s; efflux ratio at 120 min, 5 µM [3]: 0.268; B/P ([4]; 50 ng/mL): 0.44; B/P ([4]; 1000 ng/mL): 0.47; B/P (assumed PBPK input) ([4]; assumed from measured 0.455): 0.55; CLiv/oral [CV%] ([5]; i.v., ref Table S2/S3 studies): 23.04 [14] (i.v.) L/h; AUCinf [5, 13]: 217 (20) ng.h/mL; Cmax [5, 13]: 83 (21) ng/mL; CLRenal [5, 14]: Negligible; Cmax [5, 15]: 64 (28) ng/mL; AUCinf [5, 16]: 514 (27) ng.h/mL; fucyt, Human Liver Cytosol with 5 uM Raloxifene [6]: 0.337 (4.82); fucyt, Human Liver Cytosol with 50 uM Hydralazine [6]: 0.356 (2.53); fumic (PBPK input) [7]: 0.210; Predicted fumic for 0.5 mg/mL [7, 17]: 0.118; Predicted fumic for 1 mg/mL [7, 17]: 0.063; Cmax, control (CYP3A4; DDI study with itraconazole (capmatinib 200 mg) or ketoconazole (idelalisib 400, lenvatinib 5, ziprasidone 40 mg), observed geomean (CV%), ref suppl. 15,10,17,20,24): 89 (30) ng/mL; AUCinf, control (CYP3A4; DDI study with itraconazole (capmatinib 200 mg) or ketoconazole (idelalisib 400, lenvatinib 5, ziprasidone 40 mg), observed, ref suppl. 15,10,17,20,24): 899 (20) ng.h/mL; AUCinf, control (AUC0-12 for ziprasidone) (CYP3A4; [18]): 495 (26) ng.h/mL; Cmax, control (CYP3A4; [18]): 79 (24) ng/mL; AUCinf, interaction (CYP3A4; [19]): 1199 (18) ng.h/mL; Cmax, interaction (CYP3A4; [19]): 119 (25) ng/mL; AUCinf, interaction (AUC0-12 for ziprasidone) (CYP3A4; [20]): 285 (28) ng.h/mL; Cmax, interaction (CYP3A4; [20]): 48 (27) ng/mL; pKa1 ([8]; 47 (per cell)): 8.24[12]; pKa2 ([8]; 47 (per cell)): 6.31[12]; logP [8]: 4.53[12]; fmAO ([9]; measured in excreta): 0.67; fmAO ([9]; observed (mass balance), min-max where uncertain, Table S10): 67; fmCYP3A4 [9, 21]: 33; fmCYP3A4 [9]: 0.33; microsomal CLint at 1 µM ([10]; liver microsomes): 71.9 µL/min/mg; % Stability in plasma ([11]; male, human, plasma, 20 h, 1 µM): 96.2%; HH CLint (no reaction phenotyping) ([12]; without inhibitor): 21.8[5], ^f μL/min/10^6 hepatocytes

Q: For `CCN(C(C)=O)c1cccc(-c2ccnc3c(C#N)cnn23)c1` [Zaleplon], which “fucyt, Dog Liver Cytosol” value ([2]; no AO inhibitor) is on record?
A: 1

Q: What about the “fucyt, Dog Liver Cytosol with 50 uM Hydralazine” value [2] of the same molecule?
A: 0.84 (3.63)

Q: And the Papp A→B at 120 min, 5 µM [3]?
A: 38.9 ×10⁻⁶ cm/s

Q: And the Papp B→A at 120 min, 5 µM [3]?
A: 32.5 ×10⁻⁶ cm/s

Q: And the AUCinf [5, 22]?
A: 71.7 (12) ng.h/mL

Q: What about the Cmax [5, 22] of the same molecule?
A: 61.4 (26.4) ng/mL

Q: And the AUCinf [5, 13]?
A: 100 (24) ng.h/mL

Q: What about the Cmax [5, 13] of the same molecule?
A: 62.7 (23.8) ng/mL

Q: What about the CLRenal [5, 14] of the same molecule?
A: Negligible

Q: What about the Cmax [5, 15] of the same molecule?
A: 14.4 (38.9) ng/mL

Q: And the AUCinf [5, 16]?
A: 31.4 (57.3) ng.h/mL

Q: And the AUCinf [5, 23]?
A: 22.5 (45.8) ng.h/mL

Q: What about the Cmax [5, 23] of the same molecule?
A: 14.5 (45.5) ng/mL

Q: And the “fucyt, Human Liver Cytosol with 5 uM Raloxifene” value [6]?
A: 0.846 (1.87)

Q: What about the “fucyt, Human Liver Cytosol with 50 uM Hydralazine” value [6] of the same molecule?
A: 1 (1.10)

Q: What about the “fumic (PBPK input)” value [7] of the same molecule?
A: 0.964

Q: And the “Predicted fumic for 1 mg/mL” value [7, 17]?
A: 0.932

Q: And the logP [8]?
A: 1.3[12]

Q: What about the fmCYP3A4 [9, 21] of the same molecule?
A: 26-43

Q: And the “fmCYP3A4 (maximum)” value ([9]; ref suppl. 9-11)?
A: 0.43

Q: And the “fmCYP3A4 (minimum)” value ([9]; ref suppl. 9-11)?
A: 0.26

Q: And the microsomal CLint at 1 µM ([10]; microsomes)?
A: 5.95 µL/min/mg

Q: What about the “% Stability in plasma” value ([11]; 37°C, n=1, at 20h) of the same molecule?
A: 104%

Q: What about the “HH CLint, non-AO” value ([12]; with 25 μM hydralazine) of the same molecule?
A: 0.8[21] μL/min/10^6 hepatocytes
